Results taken from ChEMBL document CHEMBL1201862, “PubChem BioAssay data set” (2004).
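Five concentrations, 48 hours, 96-well plates. GI50 is the concentration that inhibits growth by half.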 Calls of active or inactive are those of the source. No stated cut-off is given here; in the data, active = GI50 up to about 1.1 µM and inactive = higher.

Legend:
Assay in all cases: NCI-60 cell line screen, 48 h
A549 = test system: A549
ACHN = test system: ACHN
EKVX = test system: EKVX
HCC 2998 = test system: HCC 2998
HL-60 = test system: HL-60
K562 = test system: K562
LXFL 529 = test system: LXFL 529
M14 = test system: M14
MCF7 = test system: MCF7
MDA-MB-231 = test system: MDA-MB-231
MDA-N = test system: MDA-N
NCI-H460 = test system: NCI-H460
NCI/ADR-RES = test system: NCI/ADR-RES
OVCAR-5 = test system: OVCAR-5
PC-3 = test system: PC-3
RPMI-8226 = test system: RPMI-8226
RXF 393 = test system: RXF 393
SW-620 = test system: SW-620
UACC-62 = test system: UACC-62
UO-31 = test system: UO-31

Measured: GI50

O=C(/C=C/c1ccc(OCCSCCCCCCCCCCSCCOc2ccc(/C=C/C(=O)c3ccc(Cl)cc3)cc2)cc1)c1ccc(Cl)cc1
inactive: A549 > 100 µM | ACHN > 88.1 µM | EKVX > 100 µM | HCC 2998 > 100 µM | HL-60 > 100 µM | K562 > 100 µM | LXFL 529 > 100 µM | M14 > 100 µM | MCF7 > 100 µM | MDA-MB-231 > 100 µM | MDA-N > 100 µM | NCI-H460 > 100 µM | NCI/ADR-RES > 100 µM | OVCAR-5 > 100 µM | PC-3 > 100 µM | RPMI-8226 > 100 µM | RXF 393 43.6 µM | SW-620 > 100 µM | UACC-62 > 80.9 µM | UO-31 > 100 µM
